From ChEMBL document CHEMBL2424594, “Contributions of academic laboratories to the discovery and development of chemical biology tools” (J Med Chem, 2013) come the findings set out here.

The species named for experiment [1] is Homo sapiens. Put plainly: Selectivity ratio of Ki for CB1 receptor (unknown origin) to Ki for CB2 receptor (unknown origin).
The target of experiment [2] is Cannabinoid receptor 2 (Homo sapiens, UniProt P34972). In words: Binding affinity to CB2 receptor (unknown origin).
Cannabinoid receptor 2, sequence (P34972 whole entry): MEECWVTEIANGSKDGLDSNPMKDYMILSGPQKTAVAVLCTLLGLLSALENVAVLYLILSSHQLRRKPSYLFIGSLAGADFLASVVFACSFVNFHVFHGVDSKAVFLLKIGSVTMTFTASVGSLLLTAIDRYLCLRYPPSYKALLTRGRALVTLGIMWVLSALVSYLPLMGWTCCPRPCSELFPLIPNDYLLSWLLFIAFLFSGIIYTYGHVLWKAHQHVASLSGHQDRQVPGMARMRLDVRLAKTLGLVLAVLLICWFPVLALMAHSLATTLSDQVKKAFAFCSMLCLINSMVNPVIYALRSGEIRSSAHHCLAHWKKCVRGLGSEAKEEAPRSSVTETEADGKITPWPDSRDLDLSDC
In experiment [3] the target is Cannabinoid receptor 1 (Homo sapiens, UniProt P21554). Put plainly: Binding affinity to CB1 receptor (unknown origin).
Cannabinoid receptor 1, sequence (P21554 whole entry): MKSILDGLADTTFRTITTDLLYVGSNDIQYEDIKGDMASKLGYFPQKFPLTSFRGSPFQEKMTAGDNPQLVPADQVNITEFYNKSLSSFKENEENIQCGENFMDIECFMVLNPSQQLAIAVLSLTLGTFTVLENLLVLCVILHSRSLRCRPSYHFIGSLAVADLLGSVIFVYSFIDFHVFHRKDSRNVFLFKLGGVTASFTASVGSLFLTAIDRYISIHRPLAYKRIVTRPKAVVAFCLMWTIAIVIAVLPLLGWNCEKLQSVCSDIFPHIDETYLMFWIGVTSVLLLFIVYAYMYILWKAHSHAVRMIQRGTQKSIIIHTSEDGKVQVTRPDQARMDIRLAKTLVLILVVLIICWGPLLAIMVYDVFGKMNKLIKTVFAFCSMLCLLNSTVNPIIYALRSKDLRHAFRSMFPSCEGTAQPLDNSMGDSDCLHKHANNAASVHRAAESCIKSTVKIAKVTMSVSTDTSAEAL

In the case of `CCCn1cc(C(=O)c2ccc(C)c3ccccc23)c2ccccc21`, in experiment [1], the Ratio Ki is 173.
As to `CN1CCCCC1Cn1cc(C(=O)c2cc([N+](=O)[O-])ccc2I)c2ccccc21` (racemic), in experiment [1], the Ratio Ki amounted to 82. For the same compound, the Ki – broadly, a dissociation constant, usually derived from enzyme kinetics or from competition with a known ligand – was found to be 0.0034 µM in experiment [2] and 0.28 µM in experiment [3].
